Test results reported in patent US6451856B1, “Carnitine supplemented diets for gestating and lactating swine” (Lonza Inc., priority 1996, dated 2002).

Experiments:
Assay type in all cases: in vivo, swine
[1] = system: sows (PIC Line C-15x326); experiment: Effect of L-carnitine fed during gestation, lactation or both on sow and litter performance; settings: for Litter birth weight / Litter weight at weaning / Litter weight gain / Pig birth weight / Pig wean weight / Pig weight gain / Survivability: 50 ppm L-carnitine in diet; for Pigs weaned per litter / Average daily feed intake, overall / Average daily feed intake, wk 1 / Average daily feed intake, wk 2: 50 ppm L-carnitine; for Pigs weaned per litter: pigs per litter on day 2 as covariate; for Average daily feed intake, overall / Average daily feed intake, wk 1 / Average daily feed intake, wk 2: sow lactation feed intake
Text: A total of 307 sows (PIC Line C-15x326) were used to determine the effect of feeding 50 ppm L-carnitine on the sow and litter performance. Sows were randomly assigned to either control or test dietary treatments. The three test treatments were designated as follows: (i) control/carnitine (in which carnitine was supplemented only during the period of lactation); (ii) carnitine/control (in which carnitine was supplemented only during the period of gestation) and (iii) carnitine/carnitine (in which carnitine was supplemented during the periods of both gestation and lactation).
A gestation diet was formulated to contain nutrients in excess of NRC (1988) estimates, and included 79.51% milo; 15.22% soybean meal (46.5% CP); 2.51% monocalcium phosphate; 1.11% limestone; 0.5% sodium chloride; 0.25% sow premix; 0.25% vitamin premix; and 0.15% trace element premix. This diet contained 0.65% total lysine, 0.95% Ca and 0.85% P. Experimental gestation diet contained 50 ppm L-carnitine. Sows were fed 4 lb of diet/day once a day until farrowing. Sows were weighed and last rib fat debt was recorded at day 110 of gestation. At farrowing, a number of pigs born live, stillborn, and mummies were recorded. Individual pig weight and litter weight were also recorded. Within 48 hours from farrowing, litters were equalized within dietary treatment.
A lactation diet was formulated to contain nutrients in excess of NRC (1988) estimates, and included 62.91% milo; 28.41% soybean meal (46.5% CP); 4% soybean oil; 2.33% monocalcium phosphate; 1.12% limestone; 0.5% sodium chloride; 0.25% sow premix; 0.25% vitamin premix; 0.15% trace element premix; 0.05% vitamin E and 0.02% DL-Methionine. This diet contained 1.0% total lysine, 0.95% Ca and 0.85% P. Experimental lactation diet contained 50 ppm L-carnitine. The sows were allowed ad libitum access to feed. Feed intake was measured weekly. Pigs were weighed at weaning to determine pig and litter weight. Sows were ultrasonically scanned for last rib fat debt at weaning.
The data were analyzed by analysis of variance using GLM procedure of SAS (1988).

[2] = system: sows (PIC Line C-15x326); experiment: Sow plasma analysis for insulin and IGF-I
Description: Sows were bled at day 10, 60, 90 and 110 of gestation and at weaning. Plasma samples were analyzed for concentration of free and total carnitine, insulin, and insulin-like growth factor I (IGF-I). The data were analyzed by analysis of variance using GLM procedure of SAS (1988).

[3] = system: sows (PIC Line C-15x326); experiment: Effects of L-carnitine on subsequent reproductive performance (second reproductive cycle, no carnitine); settings: for Days to estrus / Farrowing rate / Number born live / Number total born: first-cycle 50 ppm L-carnitine; for Farrowing rate / Number born live / Number total born: second cycle
Description: The effect of carnitine on subsequent reproductive performance was also measured. Sows fed diets described above were continued to be monitored during the subsequent, i.e., second cycle of reproduction. The sow diets were not supplemented with carnitine during the second cycle of reproduction to determine if carnitine had any residual effect. The total number of pigs born and the number of pigs born alive were determined. Referring to Table 5, feeding carnitine in the first reproductive cycle increased the total number of born pigs and the number of pigs born alive in the second reproductive cycle.

[4] = gestation and lactation (carnitine/carnitine)
[5] = gestation only (carnitine/control)
[6] = gestation only (carnitine/control), listed as Carnitine
[7] = lactation only (control/carnitine)
[8] = carnitine fed in the first reproductive cycle, none in the second

In the case of C[N+](C)(C)C[C@H](O)CC(=O)[O-] [L-carnitine], the Litter birth weight [1, 4] is reported as 34.49 lb, the “Litter weight at weaning” value [1, 4] is reported as 99.03 lb and the Litter weight gain [1, 4] is reported as 64.25 lb. It also gave a Pig birth weight [1, 4] of 3.53 lb, a Pig wean weight [1, 4] of 10.99 lb and a Pig weight gain [1, 4] of 7.45 lb. The Survivability [1, 4] was 90.45%, the Litter birth weight [1, 5] was “increased” and the “Litter weight at weaning” value [1, 5] was “increased”. For the same molecule, the Litter weight gain [1, 5] was “increased”, the Pig birth weight [1, 5] was “increased” and the Pig wean weight [1, 5] was “increased”. The Pig weight gain [1, 5] was “increased”, the Survivability [1, 5] was 86.87% and the Litter birth weight [1, 6] was 34.46 lb. For the same molecule, the “Litter weight at weaning” value [1, 6] was 97.69 lb, the Litter weight gain [1, 6] was 62.83 lb and the Pig birth weight [1, 6] was 3.45 lb. For the same molecule, the Pig wean weight [1, 6] was 10.94 lb, the Pig weight gain [1, 6] was 7.52 lb and the Litter birth weight [1, 7] was 32.73 lb. For the same molecule, the “Litter weight at weaning” value [1, 7] was 91.91 lb, the Litter weight gain [1, 7] was 58.59 lb and the Pig birth weight [1, 7] was 3.32 lb. For the same molecule, the Pig wean weight [1, 7] was 10.38 lb, the Pig weight gain [1, 7] was 7.11 lb and the Survivability [1, 7] was 86.08%. For the same molecule, the “Pigs weaned per litter” value [1, 4] was 9.00, the “Pigs weaned per litter” value [1, 5] was 9.02 and the “Pigs weaned per litter” value [1, 7] was 8.89. For the same molecule, the “sow weight at weaning” value ([1]; L-carnitine during gestation only, control 493, P<0.01) was 511 lb, the “sow weight at weaning” value ([1]; carnitine during both gestation and lactation, control 493 lb) was 524 lb and the “sow or litter performance” value ([1]; carnitine during the period of lactation only, versus control) was “no differences were observed”. For the same molecule, the “number of stillborn pigs per litter” value ([1]; carnitine-supplemented diet during gestation only, control 0.76, P<0.02) was 0.49 stillborn pigs/litter, the “Average daily feed intake, overall” value [1, 4] was 13.58 lb and the “Average daily feed intake, wk 1” value [1, 4] was 11.88 lb. For the same molecule, the “Average daily feed intake, wk 2” value [1, 4] was 14.87 lb, the “Average daily feed intake, overall” value [1, 5] was 13.16 lb and the “Average daily feed intake, wk 1” value [1, 5] was 11.52 lb. The “Average daily feed intake, wk 2” value [1, 5] was 14.70 lb, the “Average daily feed intake, overall” value [1, 7] was 13.01 lb and the “Average daily feed intake, wk 1” value [1, 7] was 11.55 lb. For the same molecule, the “Average daily feed intake, wk 2” value [1, 7] was 14.41 lb, the “insulin levels in the plasma of sows” value ([2]; days 10 and 60 of gestation, P<0.07) was “tended to increase” and the “IGF-I concentration in sow plasma” value ([2]; gestation days 60 and 90) was “tended to increase”. For the same molecule, the “number of pigs born alive in the second reproductive cycle” value [3, 8] was “increased”, the “total number of born pigs in the second reproductive cycle” value [3, 8] was “increased” and the Days to estrus [3, 4] was 5.37 days. It also gave a Days to estrus [3, 5] of 6.11 days, a Days to estrus [3, 7] of 5.82 days and a Farrowing rate [3, 4] of 93.2%. The Number born live [3, 4] was 12.03, the Number total born [3, 4] was 12.85 and the Farrowing rate [3, 5] was 86.5%. The Number born live [3, 5] was 11.17, the Number total born [3, 5] was 11.97 and the Farrowing rate [3, 7] was 96.3%. For the same molecule, the Number born live [3, 7] was 11.22 and the Number total born [3, 7] was 12.26.
